For the test, the target named is T1, hTAS1R1 R151A/rTAS1R3 (Homo sapiens, UniProt Q7RTX1, R151A).
T1 construct: UniProtKB number Q7RTX1–1); expressed in transfected cells; host or cells: HEK293T/17 (ATCC CRL-11268)
T1 sequence (Q7RTX1 21-841 R151A): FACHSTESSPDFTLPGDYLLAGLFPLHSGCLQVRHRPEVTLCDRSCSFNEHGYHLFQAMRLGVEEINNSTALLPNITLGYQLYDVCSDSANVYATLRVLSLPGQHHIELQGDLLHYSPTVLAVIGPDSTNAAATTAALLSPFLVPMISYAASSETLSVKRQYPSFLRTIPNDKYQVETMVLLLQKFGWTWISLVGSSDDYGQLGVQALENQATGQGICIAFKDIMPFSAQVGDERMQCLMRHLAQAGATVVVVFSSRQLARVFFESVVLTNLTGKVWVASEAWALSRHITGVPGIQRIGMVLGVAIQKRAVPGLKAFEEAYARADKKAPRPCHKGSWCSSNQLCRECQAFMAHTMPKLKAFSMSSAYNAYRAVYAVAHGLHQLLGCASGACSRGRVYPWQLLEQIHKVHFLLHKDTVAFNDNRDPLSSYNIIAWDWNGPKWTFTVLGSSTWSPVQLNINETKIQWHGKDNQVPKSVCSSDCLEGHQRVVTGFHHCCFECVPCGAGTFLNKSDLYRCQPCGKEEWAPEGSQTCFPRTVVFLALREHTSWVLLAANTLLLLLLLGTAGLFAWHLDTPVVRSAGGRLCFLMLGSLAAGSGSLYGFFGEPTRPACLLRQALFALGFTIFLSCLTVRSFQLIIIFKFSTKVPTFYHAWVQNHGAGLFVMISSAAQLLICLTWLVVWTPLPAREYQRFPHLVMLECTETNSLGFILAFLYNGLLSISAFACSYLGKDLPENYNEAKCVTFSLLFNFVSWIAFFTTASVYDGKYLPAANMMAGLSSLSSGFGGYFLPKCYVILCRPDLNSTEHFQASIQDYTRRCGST
T1 sequence (Q923K1 21-858 partner): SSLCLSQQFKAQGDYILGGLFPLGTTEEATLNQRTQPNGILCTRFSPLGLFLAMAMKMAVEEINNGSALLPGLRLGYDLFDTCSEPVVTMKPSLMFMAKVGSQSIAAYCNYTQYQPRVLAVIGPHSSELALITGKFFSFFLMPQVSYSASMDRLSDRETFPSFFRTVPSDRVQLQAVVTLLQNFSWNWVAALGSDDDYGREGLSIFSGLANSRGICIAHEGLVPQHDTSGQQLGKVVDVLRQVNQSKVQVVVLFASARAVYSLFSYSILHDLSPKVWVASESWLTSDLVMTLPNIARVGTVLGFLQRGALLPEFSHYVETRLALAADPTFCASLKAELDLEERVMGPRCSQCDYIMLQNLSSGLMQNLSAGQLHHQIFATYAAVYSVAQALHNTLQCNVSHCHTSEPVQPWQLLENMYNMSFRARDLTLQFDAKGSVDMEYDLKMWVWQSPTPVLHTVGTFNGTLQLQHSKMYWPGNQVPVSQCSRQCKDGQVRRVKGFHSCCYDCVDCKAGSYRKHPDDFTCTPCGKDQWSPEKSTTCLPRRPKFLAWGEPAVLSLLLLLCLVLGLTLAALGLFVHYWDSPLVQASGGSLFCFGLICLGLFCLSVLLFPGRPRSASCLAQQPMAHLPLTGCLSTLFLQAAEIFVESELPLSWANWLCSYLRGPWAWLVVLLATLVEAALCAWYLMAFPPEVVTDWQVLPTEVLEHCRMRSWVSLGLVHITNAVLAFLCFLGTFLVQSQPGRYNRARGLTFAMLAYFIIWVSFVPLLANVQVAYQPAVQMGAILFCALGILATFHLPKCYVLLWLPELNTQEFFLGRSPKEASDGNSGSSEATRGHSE
Description: Calcium assay, hTAS1R1 mutant co-expressed with rTAS1R3. The class given is cell-based, rat.

As to `N[C@@H](CCC(=O)N[C@@H](CS)C(=O)NCC(=O)O)C(=O)O` [GSH, γ-L-glutamyl-L-cysteinyl-glycine], the EC50 was determined as 2.59 ± 1.59 mM. The “effect of the added compound (1 mM) on the response to L-Glu” value (R151A) is given as “did not affect”. In addition, under “R151A, GSH”, the “Max ∆F/F0” value stood at 0.31 ± 0.08 and the “R1 = mutant EC50/WT EC50” value is given as 1.0.
Take `CCCC(CCC)NC(=O)c1ccc2c(c1)OCO2` [S807, N-(heptan-4-yl)benzo[d][1,3]dioxole-5-carboxamide, reference compound]: where the note is “R151A”, the “response to the agonist alone, vs WT” value is reported as “strongly affected”.

The EC50 is the midpoint of the concentration-response curve.

The values are drawn from paper PMC12615753, “Glutathione as a taste modulator: molecular mechanisms of interaction with umami and sweet taste receptors” (Food Chemistry: Molecular Sciences, 2025).
